Legend:
[1] = test system: arachidonic acid (AA) induced ear edema; assay: Arachidonic acid (AA) induced ear edema model; type: in vivo, mice; details: for AUC reduction (%) AA: 10 μg one single s.c. injection 20 minutes before AA, compared to PBS control; for Peak reduction (%) AA: 10 μg subcutaneously 20 minutes before induction of edema
Description: A stock solution of AA was prepared by diluting AA in acetone, 4 mg/10 μL, and was stored frozen at −80° C. A final working solution, 1 mg/10 μL, in acetone was prepared. The working solution was used within one hour after preparation.
(§1) Both outer ears of a non-anesthetized mouse were washed with mild soap (Palmolive, Sweden) using a soft tooth brush, the ears were dried with tissue and cleaned with tissue soaked with acetone. After allowing the acetone to evaporate, TPA or AA was applied on both sides, 10 μL, on each side of the ear with care to cover the whole ear. The mouse was held for 20 seconds to allow the solvent to evaporate.
(§2) The ears of non-anesthetized mice were measured at different time points for up to 96 hours after the TPA was administered, or up to 24 hours for the AA model. The first measurements were done before the edema was induced. The thickness was recorded with a spring loaded dial micrometer (Limit, Thickness Gauge, accuracy 0.01 mm, contact area Ø6 mm, Luna AB, Allingsås, Sweden) in triplicates at all time points per ear.
(§3) The average thickness for both ears on a mouse was calculated and compared to the average thickness of the ears at the starting time point. The value obtained at the start of the experiment was set as 100%. The peak values and area under the curve (AUC) values for the treatment groups were calculated and compared to the inflamed control group, treated with PBS (set as 100%), and expressed as a percentage change (Δ% AUC).
(§4) Area under the curve (AUC) with base line set as 100 was calculated using GraphPad Prism version 4.03 for Windows (GraphPad Software, San Diego Calif. USA, www.graphpad.com).
In addition to the experiments done with the control compounds and IDX0001, all other test compounds were investigated in a similar fashion in the TPA and/or AA ear edema models, where the test compounds were given subcutaneously (10 μg) 20 minutes before induction of edema. The results were expressed as reduction of peak value and reduction of area under curve (AUC) in Table 5.

[2] = test system: tetradecanoylphorbol 13-acetate (TPA) induced ear edema; assay: TPA-induced ear edema model; type: in vivo, mice; details: for Differences in AUC: Study L dose response; for Reduction of AUC compared to PBS: Study A / FIG. 1, one single injection (i.p. in Study A, s.c. in FIG. 1) 20 min before TPA, day 0; for AUC reduced: Study J; for AUC reduction (%) TPA: 10 μg one single s.c. injection 20 minutes before TPA, compared to PBS control; for Peak reduction (%) TPA: 10 μg subcutaneously 20 minutes before induction of edema
Description: A stock solution of TPA was prepared by dissolving TPA in DMSO, 1 mg/mL, and was stored frozen at −80° C. For study B-E, a working solution was prepared with 200 μL of the TPA stock solution added to 800 μL acetone. The working solution was used the same day as it was prepared.
Each cage was identified by a cage card marked with study number, group number, ethical approval number, sex and animal ear numbers. The animals were individually marked on the tail with transverse lines corresponding to the animals' number, using a permanent-ink felt pen. An illustration of the protocols used for the different treatments is outlined in Table 4. The compounds were tested according to the same protocols with necessary modifications.
Intraperitoneal (i.p.) injections were performed by giving 100 μL in the lower right quadrant of the abdomen. Subcutaneous injections were done with 100 μL in the neck region. Intranasal administration was performed by letting the mouse inhale droplets into the nostrils, total volume 40 μL. All administrations were done on non-anesthetized mice.
as §1
Intraperitoneal injections were given in the lower right quadrant of the abdomen with the animal held in a supine position. Subcutaneous (s.c.) injections were given in the neck of the animals. Intranasal administrations were given to mice held in a slightly reclining position. With an adjustable micro-pipette 40 μL of the test substance was given in droplets on the nostrils and the mouse was allowed to aspirate at free will.
as §2, §3, §4
AUC reduction and P-values were calculated against the positive control (TPA or AA+PBS).

[3] = Study B, 100 μg s.c. 4 days before induction of edema
[4] = Study C (repeat of B), 100 μg s.c. 4 days before induction of edema
[5] = Study D, 100 μg s.c. 2 days before induction of edema
[6] = Study E, 100 μg s.c. same day, approx. 20 min before induction
[7] = Study F, equal doses 50 μg s.c. same day as swelling induced
[8] = Study G, therapeutic, 100 μg s.c. 2 hours after induction of edema
[9] = Study H, 100 μg intranasal 4 days before swelling induced
[10] = Study I, 100 μg intranasal day 0, same day as edema induced
[11] = therapeutic, 100 μg intranasal 2 hours after induction

Compound: O=C1CCN(c2ccccc2)N1 [Phenidone]
- reduction of AUC ([1]; FIG. 4, phenidone given 30 min before AA, IDX0150 given 20 min before AA): −39.1%

Compound: G*G*A*A*C*A*G*T*T*C*G*T*C*C*A*T*G*G*C (as printed in the source, key not given here) [IDX0500]
- reduction of AUC ([2]; Study N, 0.005 μg, one single i.n. (Table 4) day 0): −15%
- reduction of AUC ([2]; Study N, 0.01 μg, one single i.n. (Table 4) day 0): −15.3%
- reduction of AUC ([2]; Study N, 0.1 μg, one single i.n. (Table 4) day 0): −18.2%
- reduction of AUC ([2]; Study N, 1 μg, one single i.n. (Table 4) day 0): −54.1%
- reduction of AUC ([2]; Study O, 10 μg given s.c. on day 0 (Table 4: i.n.)): −25.5%

Compound: G*G*A*ACAGTTGCTCCAT*G*G*C (as printed in the source, key not given here) [IDX0526, negative control, having the CpG motif substituted with a GC]
- Differences in AUC ([2]; 0.1 μg, one single i.n. (Table 4) day 0): +1.24%
- Differences in AUC ([2]; 100 μg, one single i.n. (Table 4) day 0): +6.18%
- anti-swelling activity ([2]; Study L, 0.1-100 μg): no anti-swelling activity

Compound: G*G*G*GAACAGTTCGTCCAT*G*G*C (phosphorothioate linkages, as printed in the source, key not given here) [IDX0955, oligonucleotide used as control; * = phosphorothioate modification]
- Reduction of AUC compared to PBS ([2]; 100 μg): −4.8%
- reduction of AUC [2, 3]: −22.7%
- reduction of AUC [2, 4]: −24.3%
- reduction of AUC [2, 5]: −17.8%
- reduction of AUC [2, 6]: −17.7%
- reduction of AUC [2, 7]: −18.3%
- reduction of AUC [2, 8]: −40.7%
- reduction of AUC [2, 9]: −17.4%
- reduction of AUC [2, 10]: −28.8%
- AUC reduced [2, 11]: −17.2%

Compound: G*G*G*GCGTCTGCC*G*G*G (GGGGCGTCTGCCGGG; DNA, linkages s3 o8 s3 (s phosphorothioate, o phosphodiester), methylation of C not given here) [IDX9051, oligonucleotide; * = phosphorothioate modification]
- AUC reduction (%) TPA [2]: −54.0%
- Peak reduction (%) TPA [2]: −29.5%
- AUC reduction (%) AA [1]: −67.5%
- Peak reduction (%) AA [1]: −17.7%

Compound: T*C*C*A*T*G*A*C*G*T*T*C*C*T*G*A*C*G*T*T [IDX0920]
- Reduction of AUC compared to PBS ([2]; 50 μg): −22.1%
- reduction of AUC ([2]; Study B, 50 μg s.c. 4 days before induction of edema): −19.3%
- reduction of AUC ([2]; Study C (repeat of B), 50 μg s.c. 4 days before induction of edema): −3%
- reduction of AUC ([2]; Study D, 50 μg s.c. 2 days before induction of edema): −19.1%
- reduction of AUC ([2]; Study E, 50 μg s.c. same day, approx. 20 min before induction): −19.4%
- reduction of AUC [2, 7]: −17%
- reduction of AUC ([2]; Study G, therapeutic, 50 μg s.c. 2 hours after induction of edema): −43.8%
- reduction of AUC ([2]; Study H, 50 μg intranasal 4 days before swelling induced): −33.8%
- reduction of AUC ([2]; Study I, 50 μg intranasal day 0, same day as edema induced): −27.3%
- AUC reduced ([2]; therapeutic, 50 μg intranasal 2 hours after induction): −28.7%

Compound: T*C*C*ATGGTCAGGGTCCCGG*G*G*G (TCCATGGTCAGGGTCCCGGGGG; DNA, linkages s3 o15 s3 (s phosphorothioate, o phosphodiester), methylation of C not given here) [IDX9064, oligonucleotide; * = phosphorothioate modification]
- AUC reduction (%) TPA [2]: −59.7%
- Peak reduction (%) TPA [2]: −41.7%

Compound: T*C*C*CAAGATCGTCC*A*G*G (phosphorothioate linkages, as printed in the source, key not given here) [IDX9076, oligonucleotide; * = phosphorothioate modification]
- AUC reduction (%) TPA [2]: −5.1%
- Peak reduction (%) TPA [2]: −2.6%
- AUC reduction (%) AA [1]: −45.7%
- Peak reduction (%) AA [1]: −20.1%

Compound: T*C*C*GATCGTCC*A*G*G (TCCGATCGTCCAGG; DNA, linkages s3 o7 s3 (s phosphorothioate, o phosphodiester), methylation of C not given here) [IDX9078]
- AUC reduction (%) TPA [2]: −41.3%
- Peak reduction (%) TPA [2]: −26.1%
- AUC reduction (%) AA [1]: −79.4%
- Peak reduction (%) AA [1]: −16.4%

Compound: T*C*C*GCGTTCGGCCTCCTGGCG*C*G*G (phosphorothioate linkages, as printed in the source, key not given here) [IDX0001, oligonucleotide; * = phosphorothioate modification]
- Reduction of AUC compared to PBS ([2]; 100 μg): −15.7%
- reduction of AUC [2, 3]: −16.3%
- reduction of AUC [2, 4]: −17.9%
- reduction of AUC [2, 5]: −12.4%
- reduction of AUC [2, 6]: −16.7%
- reduction of AUC [2, 7]: −13.2%
- reduction of AUC [2, 8]: −17.9%
- reduction of AUC [2, 9]: −25.7%
- reduction of AUC [2, 10]: −6.4%
- AUC reduced [2, 11]: −25.2%

Compound: T*C*G*TCTGCTTAGTTCGTTA*G*T*T (TCGTCTGCTTAGTTCGTTAGTT; DNA, linkages s3 o15 s3 (s phosphorothioate, o phosphodiester), methylation of C not given here) [IDX9087]
- AUC reduction (%) TPA [2]: −40.2%
- Peak reduction (%) TPA [2]: +0.9%

Compound: T*G*C*CATTCGTCGTTCTCGTC*G*T*T (phosphorothioate linkages, as printed in the source, key not given here) [IDX9024, oligonucleotide; * = phosphorothioate modification]
- AUC reduction (%) TPA [2]: −47.3%
- Peak reduction (%) TPA [2]: −30.9%
- AUC reduction (%) AA [1]: −58.5%
- Peak reduction (%) AA [1]: −14.4%

From patent US8410068B2, “Compounds for the treatment or alleviation of edema, and methods for their use” (Index Pharmaceuticals AB, priority 2007, dated 2013)
